The source of these data is US20240116962A1, “PYRIDINE-2-AMINE DERIVATIVE AND PHARMACEUTICAL COMPOSITION AND USE THEREOF” (TSINGHUA UNIVERSITY, priority 2020, published 2024).

In one experiment the target is T1, hTLR8 (Homo sapiens, UniProt Q9NR97).
T1 construct: host or cells: HEK-Blue hTLR8 (HEK293-derived reporter cells with SEAP read-out)
T1 sequence (Q9NR97 27-1041): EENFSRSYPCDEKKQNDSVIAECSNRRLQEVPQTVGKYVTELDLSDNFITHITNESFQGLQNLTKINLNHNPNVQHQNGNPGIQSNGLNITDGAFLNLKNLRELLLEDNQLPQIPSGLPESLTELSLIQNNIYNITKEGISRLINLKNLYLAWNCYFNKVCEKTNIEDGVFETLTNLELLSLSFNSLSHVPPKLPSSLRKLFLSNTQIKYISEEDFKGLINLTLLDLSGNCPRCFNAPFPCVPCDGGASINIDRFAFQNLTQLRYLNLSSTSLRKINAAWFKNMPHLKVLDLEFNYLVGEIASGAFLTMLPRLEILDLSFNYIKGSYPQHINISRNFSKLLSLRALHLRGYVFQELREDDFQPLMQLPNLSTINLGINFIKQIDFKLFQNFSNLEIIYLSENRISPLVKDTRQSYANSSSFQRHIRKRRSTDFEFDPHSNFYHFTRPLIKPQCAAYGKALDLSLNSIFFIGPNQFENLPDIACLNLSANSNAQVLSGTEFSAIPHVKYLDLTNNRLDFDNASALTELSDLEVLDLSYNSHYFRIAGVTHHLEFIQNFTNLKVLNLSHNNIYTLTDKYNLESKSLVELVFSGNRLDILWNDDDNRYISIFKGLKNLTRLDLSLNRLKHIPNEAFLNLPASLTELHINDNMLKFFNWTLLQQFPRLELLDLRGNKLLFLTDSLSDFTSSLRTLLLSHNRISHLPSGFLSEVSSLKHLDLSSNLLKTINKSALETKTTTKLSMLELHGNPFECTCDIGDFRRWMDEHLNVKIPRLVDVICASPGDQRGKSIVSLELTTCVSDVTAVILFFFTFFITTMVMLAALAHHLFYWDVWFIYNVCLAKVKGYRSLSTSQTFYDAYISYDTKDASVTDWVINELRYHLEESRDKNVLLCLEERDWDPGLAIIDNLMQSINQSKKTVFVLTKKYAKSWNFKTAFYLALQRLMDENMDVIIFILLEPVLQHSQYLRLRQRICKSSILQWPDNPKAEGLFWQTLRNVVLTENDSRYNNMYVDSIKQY
Put plainly: EC50 assay for small molecule agonists, HEK-Blue hTLR8 cells, SEAP readout. Format: cell-based. Particulars: agonist activity, read-out: hTLR8(EC50). As to the method:
(§1) Reagents used for cell culture and detection for HEK-Blue™ hTLR7, HEK-Blue™ hTLR8 and control HEK-Blue Nu112k were as follows: DMEM (4.5 g/L glucose), bovine serum FBS, streptomycin ([…]), penicillin (50 U/mL), Blasticidin (10 mg/mL), Zeocin™ (10 mg/mL), Normocin (50 mg/mL), and HEK-Blue™ Detection. Basal medium was as follows: DMEM +10% FBS+streptomycin+penicillin+Normocin ([…]); selective medium for resistance genes was as follows: DMEM+10% FBS+streptomycin+penicillin+Normocin (1001 μg/mL)+Blasticidin (1001 μg/mL)+Zeocin™ (1001 μg/mL).
(§2) Cell preparation: HEK-Blue™ hTLR7 and HEK-Blue™ hTLR8 cell lines were purchased from Invivogen. The cells frozen in liquid nitrogen were taken, quickly placed in a water bath at 37° C., shaken occasionally, and completely melted within 1 min. The cells were transferred to 15 mL of pre-heated basal medium and resuspended; centrifuged at 1,000 r/min for 5 min, supernatant discarded; resuspended with 1 mL of basal medium, transferred to a T25 culture flask, supplemented to 5 mL with the medium, and incubated in an incubator at 37° C.; after stable passage twice, and subjected to selective antibiotic screening: HEK-Blue™ hTLR7 or HEK-Blue™ hTLR8: 100 μg/mL Zeocin+Blasticidin (30 μg/mL), HEK-Blue Nu112-k: 100 μg/mL Zeocin. The fluid was changed 3 times a week. When the number of cells reached 70%-80%, PBS was added, and the cells were exfoliated by gently pipetting.
(§3) Activity assay steps: (1) adding a test sample to a 96-well plate at 20 μL/well (triplicate wells were set); (2) adding 20 μL of positive control (e.g., R848), and adding 20 μL of negative control (e.g., ddH2O); (3) removing a T75 culture flask from the incubator, discarding the medium, adding 5-10 mL of pre-heated PBS, and gently pipetting the cells; adding 2-5 mL of PBS to the culture flask, incubating the culture flask in the incubator for 1-2 min, and then gently pipetting the cells to make them exfoliated; (4) mixing the mixture well, and counting the cells, without centrifugation; resuspending the cells with HEK-Blue™ assay solution and adjusting the cell number, taking care not to incubate for a long time to avoid too deep background or false positive. HEK-Blue hTLR cell number was about 2.2×10^5/mL, 180 μL/well (about 40000 cells), and HEK-Blue Nu112-k cell number was about 2.8×10^5/mL, 180 μL/well (about 50000 cells). (5) incubating the cells in the incubator at 37° C. for 6-16 h, and detecting at 620-655 nm for SEAP readings.
(§4) Effect %=(mean OD of the administration group−mean OD of the H2O group at each concentration)/(mean ODmax of the positive drug group−mean OD of the H2O group)×100. EC50 was calculated by fitting Lg [concentration]-effect curves using GraphPad Prism5 software.
(§5) Experimental results: the concentration for 50% of maximal effect (EC50) refers to a corresponding concentration of small molecules that can cause 50% of the maximal agonistic effect. […] EC50 represents a potency for agonizing the TLR8 receptor, with smaller values indicating better efficacy. […] In the following table, the unit of the agonist activity is nanomole, unless otherwise specified.

The target of a further experiment is T2, hTLR7 (Homo sapiens, UniProt Q9NYK1).
T2 construct: host or cells: HEK-Blue hTLR7 (HEK293-derived reporter cells with SEAP read-out)
T2 sequence (Q9NYK1 27-1049): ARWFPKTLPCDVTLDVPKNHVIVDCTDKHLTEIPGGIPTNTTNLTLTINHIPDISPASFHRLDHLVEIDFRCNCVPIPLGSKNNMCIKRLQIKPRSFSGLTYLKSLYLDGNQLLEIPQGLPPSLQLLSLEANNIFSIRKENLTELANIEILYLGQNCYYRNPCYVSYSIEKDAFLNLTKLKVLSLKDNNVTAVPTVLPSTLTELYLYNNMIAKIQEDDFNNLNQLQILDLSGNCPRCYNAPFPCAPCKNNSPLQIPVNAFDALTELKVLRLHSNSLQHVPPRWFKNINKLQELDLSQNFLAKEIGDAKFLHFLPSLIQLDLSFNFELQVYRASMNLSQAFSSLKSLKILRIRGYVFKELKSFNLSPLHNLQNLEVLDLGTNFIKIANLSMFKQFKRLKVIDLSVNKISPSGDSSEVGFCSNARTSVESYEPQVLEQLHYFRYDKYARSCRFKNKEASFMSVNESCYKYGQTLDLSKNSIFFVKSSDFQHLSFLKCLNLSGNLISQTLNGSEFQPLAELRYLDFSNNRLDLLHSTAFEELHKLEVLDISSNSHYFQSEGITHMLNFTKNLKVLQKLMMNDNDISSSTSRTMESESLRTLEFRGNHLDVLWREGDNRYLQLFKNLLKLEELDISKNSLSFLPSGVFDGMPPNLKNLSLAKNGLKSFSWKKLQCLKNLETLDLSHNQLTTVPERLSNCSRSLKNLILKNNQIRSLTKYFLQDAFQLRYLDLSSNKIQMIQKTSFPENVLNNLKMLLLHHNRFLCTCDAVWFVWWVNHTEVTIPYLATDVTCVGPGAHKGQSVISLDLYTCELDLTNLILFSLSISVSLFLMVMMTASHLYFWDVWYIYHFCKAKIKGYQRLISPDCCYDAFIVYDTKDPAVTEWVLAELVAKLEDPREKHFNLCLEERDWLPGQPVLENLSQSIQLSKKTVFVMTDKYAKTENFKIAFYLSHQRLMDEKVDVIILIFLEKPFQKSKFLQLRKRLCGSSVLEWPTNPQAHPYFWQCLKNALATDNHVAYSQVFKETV
Nature of the experiment: EC50 assay for small molecule agonists, HEK-Blue hTLR7 cells, SEAP readout. Format: cell-based. Particulars: agonist activity, nd = EC50 larger than 25 μM. As for the experimental part:
as §1, §2, §3, §4, §5

What is called EC50 is the concentration giving half of the maximal effect. Regarding `CCCCCc1cc(Cc2ccccc2CN2CCCC2)c(C)nc1N` [Compound N35], the EC50 at hTLR8 was > 4 µM; at hTLR7 it was > 25 µM.
